Test results published in patent publication US9376382B2, “N-substituted isopropyldimethyl azulene sulfonamide derivatives, and preparation method and use thereof” (Sichuan Guokang Pharmaceutical Co., Ltd., priority 2011, dated 2016).

Legend:
[1] = High humidity test (25° C., relative humidity 90% ± 5%), stability study; format: physicochemical; settings: RH 90% ± 5%; for Appearance Day 0: Day 0, cell wraps; for Appearance Day 0 / Appearance Day 5 / Appearance Day 10: first line given; for Appearance Day 5: Day 5, cell wraps; for Appearance Day 10: Day 10, cell wraps;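 as to all read-outs here: samples kept uncovered in sealed humidity desiccators, appearance judged mainly by colour change, melting point on an automatic apparatus, TLC checked for extra spots versus start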
Procedure: The test samples were open-stored in closed constant humidity desiccators under the condition of 25° C. and relative humidity of 90%+5% for 10 days, and taken and detected on Day 5 and Day 10. Meanwhile, each sample was accurately weighed before and after test.
The characteristics, especially colour change was observed.
Melting points were measured by an automatic melting point apparatus.
By self-reflection, TLC is used to observe whether the spot numbers were increased after 5 days and 10 days.

[2] = High-temperature test (60° C.), stability study; format: physicochemical; settings: open-stored; for Appearance Day 5: Day 5, cell wraps; for Appearance Day 5 / Appearance Day 10: first line given; for Appearance Day 10: Day 10, cell wraps;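 as to all read-outs here: samples kept uncovered in dishes at 60 °C for up to 10 days and examined on Day 5 and Day 10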
Procedure: The test samples were open-stored in culture dishes at 60° C. for 10 days, and taken and detected on Day 5 and Day 10. • The characteristics, especially colour change were observed. • Melting points were measured by automatic melting point apparatus. • By self-reflection, TLC is used to observe whether the spot numbers were increased after 5 days and 10 days.

[3] = Stability studies (light, humidity, heat), overall comparison; settings: for light, humidity and heat stability in words: summary of high-temperature, high humidity and intense light tests
[4] = Intense light irradiation test (4500LX ± 500LX), stability study; format: physicochemical; settings: for Appearance Day 0: Day 0, cell wraps; for Appearance Day 0 / Appearance Day 5 / Appearance Day 10: first line given; for Appearance Day 5: Day 5, cell wraps; for Appearance Day 10: Day 10, cell wraps
Procedure: The test samples were open-stored in “adjustable light boxes” under the conditions of illumination of 4500LX±500LX for 10 days, and taken and detected on Day 5 and Day 10 with regards to dry items. • The characteristics, especially colour change was observed. • Melting points were measured by an automatic melting point apparatus. • By self-reflection, TLC is used to observe whether the spot numbers were increased after 5 days and 10 days.

[5] = system: ethanol-induced gastric ulcer; assay: Anhydrous ethanol-induced gastric ulcer in mice; format: in vivo, Kunming mice; parameters: key to Gastri ulcer score (X ± SD) / Ulcer score (X ± SD) / Gastric ulcer score (X ± SD): summed pathology score: congestion 1, hemorrhage/erosion 1, linear erosion 3; settings: for Inhibition rate (%): inhibition rate of ulcer vs model group; for Gastric ulcer score (X ± SD) / Gastri ulcer score (X ± SD) / Ulcer score (X ± SD): mice, intragastric once a day for five days; for anti-gastric ulcer effect in words: ethanol-induced gastric ulcer in mice, compared to the model group; for Gastri ulcer score (X ± SD): dose equimolar to azulene sulfonate sodium 3.0 mg/kg (Omeprazole 13.4 mg/kg), model group 13.00 ± 1.77; for Ulcer score (X ± SD): equimolar doses, model group 20.33 ± 12.23
Procedure: Kunming mice, half male and half female, weighing 18-22 g, provided by the West China Animal Center
(1) Azulene sodium sulphonate was added with 0.5% CMC to prepare a suspension with concentration of 0.15 mg/ml.
(2) 20 mg of Omeprazole was added with 0.5% CMC to prepare a suspension with concentration of 0.67 mg/ml.
Kunming mice were randomly grouped according the body weight (one model control group or negative control group, one Omeprazole control group or positive control group, one Azulene sodium sulphonate control group, twelve test drug groups), eight mice for each group, half male and half female.
Administration: Model control group was administrated intragastrically with 0.5% CMC solution at a dose of 0.4 ml/20 g; Omeprazole control group was administrated intragastrically with Omeprazole at a dose of 0.4 ml/20 g, Azulene sodium sulphonate control group and each test drug groups were administrated intragastrically with their respective drug at a dose of 0.4 ml/20 g. The mice in each group were administrated once a day for successive five days. 0.5 hour after final administration, the mice in each group were administrated intragastrically with 0.5 ml of anhydrous ethanol, one hour later the mice were executed and dissected, and their stomaches were taken, washed and scored according to the pathological degree. For local congestion and rubefaction, score was 1; for petechial hemorrhage or erosion, score was respectively 1, for each linear erosion, score was 3. Statistical analysis was performed. Ulcer scores were calculated, significant differences between the groups were compared and the inhibition rates of ulcer were calculated [Inhibition rate of ulcer=(ulcer score of model group−ulcer score of drug administration group)/ulcer score of model group].

[6] = Table 6, model group 17.86 ± 8.43
[7] = Table 7, model group 19.71 ± 7.18

Row | Compound | Melting point Day 0 [1] | Spot numbers on TLC Day 0 [1] | hygroscopic rate (%) Day 0 [1] [%] | Appearance Day 0 [1] | Melting point Day 5 [1] | Spot numbers on TLC Day 5 [1] | hygroscopic rate (%) Day 5 [1] [%] | Appearance Day 5 [1] | Melting point Day 10 [1] | Spot numbers on TLC Day 10 [1] | Appearance Day 10 [1] | Melting point Day 0 [2] | Spot numbers on TLC Day 0 [2] | Melting point Day 5 [2] | melting point [°C] | Inhibition rate (%) ([5]; Table 6) | Gastric ulcer score (X ± SD) [5, 6] | anti-gastric ulcer effect in words [5] | Inhibition rate (%) ([5]; Table 7) | Gastric ulcer score (X ± SD) [5, 7] | also measured
1 | Cc1cc(S(=O)(=O)NC(C)C)c2c(C)ccc(C(C)C)cc1-2 [4c, N,5-diisopropyl-3,8-dimethyl-1-azulene sulfonamide] | 127.5-130.0 °C | 1 | 0.95 | purple | 128.0-130.5 °C | 1 | 1.32 | purple | 128.0-130.5 °C | 1 | purple | 127.5-130.0 °C | 1 | 127.5-129.5 °C | 128 to 130 |  |  |  |  |  | Spot numbers on TLC Day 5 [2]: 1; Appearance Day 5 [2]: purple; Melting point Day 10 [2]: 127.5-129.5 °C; Spot numbers on TLC Day 10 [2]: 1; Appearance Day 10 [2]: purple; light, humidity and heat stability in words [3]: better light, humidity and heat stability than azulene sulfonate sodium; Melting point Day 0 [4]: 127.5-130.0 °C; Spot numbers on TLC Day 0 [4]: 1; Appearance Day 0 [4]: purple; Melting point Day 5 [4]: 127.0-129.5 °C; Spot numbers on TLC Day 5 [4]: 1; Appearance Day 5 [4]: purple; Melting point Day 10 [4]: 125.0-126.5 °C; Spot numbers on TLC Day 10 [4]: 2; Appearance Day 10 [4]: purple
2 | Cc1cc(S(=O)(=O)NCC(C)C)c2c(C)ccc(C(C)C)cc1-2 [4e, N-isobutyl-3,8-dimethyl-5-isopropyl-1-azulene sulfonamide] | 117.0-118.0 °C | 1 | 1.07 | purple | 116.5-118.5 °C | 1 | 1.51 | purple | 116.5-118.5 °C | 1 | purple | 117.0-118.0 °C | 1 | 117.5-118.5 °C | 117 to 118 |  |  |  |  |  | Spot numbers on TLC Day 5 [2]: 1; Appearance Day 5 [2]: purple; Melting point Day 10 [2]: 117.5-118.5 °C; Spot numbers on TLC Day 10 [2]: 1; Appearance Day 10 [2]: purple; light, humidity and heat stability in words [3]: better light, humidity and heat stability than azulene sulfonate sodium; Melting point Day 0 [4]: 117.0-118.0 °C; Spot numbers on TLC Day 0 [4]: 1; Appearance Day 0 [4]: purple; Melting point Day 5 [4]: 117.5-118.0 °C; Spot numbers on TLC Day 5 [4]: 1; Appearance Day 5 [4]: purple; Melting point Day 10 [4]: 115.0-117.5 °C; Spot numbers on TLC Day 10 [4]: 2; Appearance Day 10 [4]: purple
3 | Cc1cc(S(=O)(=O)NC(Cc2c[nH]c3ccccc23)C(=O)O)c2c(C)ccc(C(C)C)cc1-2 (stereo not shown) [6c, N-2-(indol-3-methyl)-2-carboxymethylene-3′,8′-dimethyl-5′-isopropyl azulene-1′-sulfonamide] |  |  |  |  |  |  |  |  |  |  |  |  |  |  |  |  |  | stronger and more significant anti-gastric ulcer capability | 55.05 | 8.86 ± 4.81 | 
4 | CC1=C=C=C(C(C)C)C=C2C(C)=CC(S(=O)(=O)NCC(=O)N/N=C/c3cccs3)=C12 [8a] |  |  |  |  |  |  |  |  |  |  |  |  |  |  | 69 to 70 |  |  | stronger and more significant anti-gastric ulcer capability | 48.96 | 10.06 ± 5.60 | 
5 | Cc1cc(S(=O)(=O)[O-])c2c(C)ccc(C(C)C)cc1-2.[Na+] [Azulene sulfonate sodium, 3,8-dimethyl-5-isopropyl azulene-1-sodium sulphonate, reference compound] | 104.0-106.0 °C | 1 | 2.16 | dark | 100.5-105.5 °C | 3 | 3.69 | blue | 98.5-102.0 °C | 3 | light | 104.0-106.0 °C | 1 | 102.5-104.0 °C |  | 52.80 | 8.43 ± 5.74 |  | 52.16 | 9.43 ± 5.74 | Spot numbers on TLC Day 5 [2]: 2; Appearance Day 5 [2]: blue flake; Melting point Day 10 [2]: 98.5-100.0 °C; Spot numbers on TLC Day 10 [2]: 4; Appearance Day 10 [2]: light blue; light stability and heat stability in words ([3]; background statement, found by experiments): poor light stability and heat stability; Melting point Day 0 [4]: 104.0-106.0 °C; Spot numbers on TLC Day 0 [4]: 1; Appearance Day 0 [4]: dark blue; Melting point Day 5 [4]: 102.5-105.5 °C; Spot numbers on TLC Day 5 [4]: 3; Appearance Day 5 [4]: blue; Melting point Day 10 [4]: 98.54-103.5 °C; Spot numbers on TLC Day 10 [4]: >4; Appearance Day 10 [4]: light; Inhibition rate (%) ([5]; Table 4): 45.08%; Gastri ulcer score (X ± SD) ([5]; Table 4): 7.14 ± 4.73; Inhibition rate (%) ([5]; Table 5): 32.56%; Ulcer score (X ± SD) ([5]; Table 5): 13.71 ± 10.75
6 | COc1ccc2[nH]c([S+]([O-])Cc3ncc(C)c(OC)c3C)nc2c1 (stereo not shown) [Omeprazole, reference compound] |  |  |  |  |  |  |  |  |  |  |  |  |  |  |  | 59.41 | 7.25 ± 7.15 |  | 58.25 | 8.23 ± 3.18 | Inhibition rate (%) ([5]; Table 4): 47.23%; Gastri ulcer score (X ± SD) ([5]; Table 4): 6.86 ± 3.77; Inhibition rate (%) ([5]; Table 5): 36.74%; Ulcer score (X ± SD) ([5]; Table 5): 12.86 ± 11.89

Second part, led by results:

Row | Melting point Day 0 [1] | Spot numbers on TLC Day 0 [1] | hygroscopic rate (%) Day 0 [1] [%] | Appearance Day 0 [1] | Melting point Day 5 [1] | Spot numbers on TLC Day 5 [1] | hygroscopic rate (%) Day 5 [1] [%] | Appearance Day 5 [1] | Melting point Day 10 [1] | Spot numbers on TLC Day 10 [1] | Appearance Day 10 [1] | Melting point Day 0 [2] | Spot numbers on TLC Day 0 [2] | Melting point Day 5 [2] | melting point [°C] | Compound | Inhibition rate (%) ([5]; Table 6) | Gastric ulcer score (X ± SD) [5, 6] | anti-gastric ulcer effect in words [5] | Inhibition rate (%) ([5]; Table 7) | Gastric ulcer score (X ± SD) [5, 7] | also measured
7 |  |  |  |  |  |  |  |  |  |  |  |  |  |  | 178 to 180 | COC(=O)C(Cc1c[nH]c2ccccc12)NS(=O)(=O)C1=C2C(C)=C=C=C(C(C)C)C=C2C(C)=C1 (stereo not shown) [5d, N-2-(indol-3-methyl)-2-methoxyformyl methylene-3′,8′-dimethyl-5′-isopropyl azulene-1′-sulfonamide] | 51.23 | 8.71 ± 4.93 | stronger and more significant anti-gastric ulcer capability |  |  | 
8 |  |  |  |  |  |  |  |  |  |  |  |  |  |  | 94 to 96 | COC(=O)CCNS(=O)(=O)C1=C2C(C)=C=C=C(C(C)C)C=C2C(C)=C1 [5h, N-3-methoxyformylethyl-3′,8′-dimethyl-5′-isopropyl azulene-1′-sulfonamide] | 50.78 | 8.79 ± 4.38 | stronger and more significant anti-gastric ulcer capability |  |  | 
9 |  |  |  |  |  |  |  |  |  |  |  |  |  |  | 44 to 46 | CC1=C=C=C(C(C)C)C=C2C(C)=CC(S(=O)(=O)NC(CC(C)C)C(=O)O)=C12 (stereo not shown) [6b, N-2-(2-methylpropyl)-2-carboxymethylene-3′,8′-dimethyl-5′-isopropyl azulene-1′-sulfonamide] |  |  | stronger and more significant anti-gastric ulcer capability | 50.94 | 9.67 ± 4.25 | 
